Source: PMC8158844 (ACS Omega, 2021)
“And” between values parts separate entries of the source, which are not always exact repeats. Equal values may be shown once.

Assays:
[1] = Metabolic stability in porcine liver S9 fraction; assay type: in vitro ADME; conditions: 30 min; for stability porcine liver S9 fractions (percent of parent remaining): 37 °C, no NADPH added
porcine albumin [2] = target: T1, porcine albumin (Sus scrofa, UniProt P08835); assay: Stability in porcine albumin solution; assay type: in vitro ADME; conditions: porcine albumin 17.5 mg/mL in PBS; 30 min, 37 °C
[3] = Metabolic stability in porcine blood plasma; assay type: in vitro ADME; conditions: Table 3; 30 min, 37 °C; n = 3 unless otherwise stated
FAAH = target: T2, FAAH (Rattus norvegicus, UniProt P97612); assay: Inhibition of fatty acid amide hydrolase; assay type: biochemical
T2 sequence (P97612 1-579): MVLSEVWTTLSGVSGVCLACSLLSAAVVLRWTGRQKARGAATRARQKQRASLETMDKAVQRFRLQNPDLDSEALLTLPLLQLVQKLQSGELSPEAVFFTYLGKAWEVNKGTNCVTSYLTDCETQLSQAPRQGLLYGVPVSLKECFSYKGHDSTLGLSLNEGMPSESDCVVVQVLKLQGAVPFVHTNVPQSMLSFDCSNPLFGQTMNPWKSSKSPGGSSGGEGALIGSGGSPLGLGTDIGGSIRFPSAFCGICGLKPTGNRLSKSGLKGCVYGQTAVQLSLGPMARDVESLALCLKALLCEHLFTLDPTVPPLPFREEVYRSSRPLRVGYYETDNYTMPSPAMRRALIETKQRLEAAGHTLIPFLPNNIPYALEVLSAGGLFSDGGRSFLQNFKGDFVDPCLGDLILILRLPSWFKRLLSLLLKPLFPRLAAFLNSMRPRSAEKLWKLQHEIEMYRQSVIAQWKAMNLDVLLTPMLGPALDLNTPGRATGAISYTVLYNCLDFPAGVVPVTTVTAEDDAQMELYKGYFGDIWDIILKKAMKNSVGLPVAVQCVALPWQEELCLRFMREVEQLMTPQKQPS

[4] = Chemical stability in aqueous solution; assay type: physicochemical; conditions: PBS buffer pH 7.4 with 0.2% Triton X-100; 60 min, 37 °C
BuChE = BuChE (Equus caballus, UniProt P81908); assay: Inhibition of butyrylcholinesterase; assay type: biochemical, horse; conditions: read-out: BuChE inhibition at 10 μM
porcine albumin [5] = target: T1, porcine albumin; assay: Reaction with porcine albumin investigated by MS; conditions: 60 min, 37 °C; molar ratio compound/albumin 4:1
human recombinant MAGL = target: T3, human recombinant MAGL (Homo sapiens, UniProt Q99685); assay: Inhibition of monoacylglycerol lipase; assay type: biochemical
T3 sequence (Q99685 1-303): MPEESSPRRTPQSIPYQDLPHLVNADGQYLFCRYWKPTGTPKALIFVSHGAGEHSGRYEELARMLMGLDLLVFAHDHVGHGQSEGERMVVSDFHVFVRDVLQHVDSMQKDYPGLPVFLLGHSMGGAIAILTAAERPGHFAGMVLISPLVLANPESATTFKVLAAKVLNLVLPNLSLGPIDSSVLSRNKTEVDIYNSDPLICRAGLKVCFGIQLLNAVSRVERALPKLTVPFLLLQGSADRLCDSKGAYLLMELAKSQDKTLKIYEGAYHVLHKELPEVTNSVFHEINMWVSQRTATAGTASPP

Sequence of BuChE (P81908 whole entry): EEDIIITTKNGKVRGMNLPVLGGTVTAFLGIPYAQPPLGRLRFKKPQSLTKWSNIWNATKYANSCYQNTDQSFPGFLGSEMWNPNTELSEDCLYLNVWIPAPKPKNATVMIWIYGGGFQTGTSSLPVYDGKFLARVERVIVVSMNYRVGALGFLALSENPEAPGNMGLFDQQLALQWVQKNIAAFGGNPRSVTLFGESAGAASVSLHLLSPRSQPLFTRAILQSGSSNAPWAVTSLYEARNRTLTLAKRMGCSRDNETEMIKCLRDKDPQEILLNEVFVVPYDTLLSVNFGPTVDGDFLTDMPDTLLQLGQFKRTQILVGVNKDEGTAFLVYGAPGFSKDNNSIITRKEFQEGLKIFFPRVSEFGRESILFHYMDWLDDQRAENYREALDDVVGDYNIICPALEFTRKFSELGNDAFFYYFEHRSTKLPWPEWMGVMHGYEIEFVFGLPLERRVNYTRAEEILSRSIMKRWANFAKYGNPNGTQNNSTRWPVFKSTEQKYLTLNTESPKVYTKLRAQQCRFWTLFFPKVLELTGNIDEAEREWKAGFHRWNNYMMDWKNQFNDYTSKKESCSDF
T1 sequence (P08835 25-607): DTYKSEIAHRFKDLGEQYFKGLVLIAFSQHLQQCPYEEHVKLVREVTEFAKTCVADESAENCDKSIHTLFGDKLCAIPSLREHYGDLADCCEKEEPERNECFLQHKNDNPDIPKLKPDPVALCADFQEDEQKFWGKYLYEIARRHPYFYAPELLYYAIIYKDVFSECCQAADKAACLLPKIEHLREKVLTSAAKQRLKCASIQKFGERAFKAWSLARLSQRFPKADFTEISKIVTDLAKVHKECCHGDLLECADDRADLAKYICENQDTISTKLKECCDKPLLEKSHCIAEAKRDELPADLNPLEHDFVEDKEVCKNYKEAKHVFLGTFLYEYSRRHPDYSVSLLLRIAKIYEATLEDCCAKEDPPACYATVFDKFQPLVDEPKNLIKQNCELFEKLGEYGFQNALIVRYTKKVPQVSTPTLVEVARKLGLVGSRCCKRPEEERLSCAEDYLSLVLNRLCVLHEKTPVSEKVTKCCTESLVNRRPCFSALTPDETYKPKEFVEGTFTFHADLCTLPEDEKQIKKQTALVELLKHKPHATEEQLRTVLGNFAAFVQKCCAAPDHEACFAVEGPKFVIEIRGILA

Row | Compound | stability porcine liver S9 fractions (percent of parent remaining) [1] | stability porcine albumin solution (percent of parent remaining) (porcine albumin [2]) | stability porcine blood plasma (percent of parent remaining) [3] | IC50 (FAAH) | stability in PBS buffer (percent of parent remaining) [4] | inhibition at 10 µM (BuChE) | number of carbamate molecules bound to albumin in the most intense MS signal (porcine albumin [5]) | IC50 (human recombinant MAGL) | decrease in FAAH inhibitory activity compared with compound 14 (FAAH; ratio of FAAH IC50 values) | stability in the absence of BNNP (percent of parent remaining) ([1]; porcine liver homogenate) | stability in the presence of BNNP (percent of parent remaining) ([1]; porcine liver homogenate, carboxylesterase 1 inhibitor BNPP 1 mM)
1 | O=C(O)Cc1ccc(OC(=O)NCCCCCn2ccc3ccc(F)cc32)cc1 [Compound 39, 2-[4-({[5-(6-Fluoroindol-1-yl)pentyl]carbamoyl}oxy)phenyl]acetic Acid] | 85 ± 3% | >95% | 88 ± 4% | 14 nM | >95% | 38% | – | – | – | – | –
2 | NC(=O)c1cccc(-c2cccc(OC(=O)NC3CCCCC3)c2)c1 [URB597 (1), reference compound] | 80 ± 4% | 95 ± 7% | – | – | >95% | 35% | – | – | – | – | –
3 | Cc1cncc(OC(=O)NCCCCCn2ccc3ccc(F)cc32)c1 [Compound 47] | 57 ± 5% | 37% and 37 ± 4% | <5% | 2 nM | 72 ± 4% | – | three | 150 nM | – | – | –
4 | O=C(O)Cc1ccccc1OC(=O)NCCCCCn1ccc2ccc(F)cc21 [Compound 43] | 82 ± 5% | 89 ± 3% | 89 ± 1% | 4200 nM | >95% | 34% | – | – | more than 100 fold | – | –
5 | Cc1ccncc1OC(=O)NCCCCCn1ccc2ccc(F)cc21 [Compound 46, 4-Methylpyridin-3-yl N-[5-(6-fluoroindol-1-yl)pentyl]carbamate] | 56 ± 8% | 68% and 68 ± 6% | 8 ± 2% | 3 nM | 74 ± 4% | – | dual | 150 nM | – | 56 ± 8% | 76 ± 5%
